In patent US9023855B2, “Compounds” (Chiesi Farmaceutici S.p.A., priority 2011, dated 2015):

Biological target: T1, human neutrophil elastase (HNE) (Homo sapiens, UniProt P08246)
T1 construct: purchased Sigma E8140
T1 sequence (P08246 30-267): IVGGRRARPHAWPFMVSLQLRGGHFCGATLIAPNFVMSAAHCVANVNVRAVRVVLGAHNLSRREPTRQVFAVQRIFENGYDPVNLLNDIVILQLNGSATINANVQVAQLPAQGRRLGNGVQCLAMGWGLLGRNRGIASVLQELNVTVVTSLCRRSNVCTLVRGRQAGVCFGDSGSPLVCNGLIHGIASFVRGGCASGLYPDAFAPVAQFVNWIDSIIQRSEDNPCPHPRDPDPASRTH
Assay: HNE enzyme assay (fluorogenic peptide substrate MeOSuc-Ala-Ala-Pro-Val-AMC)
Type: biochemical
Settings: human leukocyte elastase, substrate 100 μM, 25° C., 30 minutes, at least two separate experiments; read-out: HNE inhibition (IC50 values)
Method: Compounds of this invention were tested for potency in a human neutrophil elastase (HNE) enzyme activity assay.
Assays were performed in 96-well plates in a total assay volume of 100 μl. The final concentration of elastase enzyme (human leukocyte elastase, Sigma E8140) was 0.0036 units/well […]. The peptide substrate (MeOSuc-Ala-Ala-Pro-Val-AMC, Calbiochem #324740) was used at a final concentration of 100 μM. The final concentration of DMSO was 1% in the assay buffer (0.05M Tris.HCl, 0.1M NaCl, 0.1M CaCl2, 0.0005% brij-35, pH 7.5). The enzymatic reaction was started by addition of the enzyme and incubated at 25° C. for 30 minutes. After incubation, the reaction was stopped by addition of soybean trypsin inhibitor (Sigma T9003) at a final concentration of 50 μg/well. Fluorescence was measured using a Molecular Devices fluorescence plate reader using 380 nm excitation and 460 nm emission wavelengths.
A dose response to each compound was performed, and the effect of the compound in each experiment was expressed as a percentage inhibition of the control enzyme fluorescence. Dose response curves were plotted and compound potency (IC50) was determined. Compounds were tested in at least two separate experiments.

| SMILES | IC50 [nM] |
| --- | --- |
| COC(=O)C1=C(C)N(c2cccc(C(F)(F)F)c2)c2nn(CC(=O)N(C)CCN(C)C)c(=O)n2C1c1ccc(C#N)cc1 (stereo not drawn) [Example 25, 5-(4-Cyano-phenyl)-2-{[(2-dimethylamino-ethyl)-methyl-carbamoyl]-methyl}-7-methyl-3-oxo-8-(3-trifluoromethyl-phenyl)-2,3,5,8-tetrahydro-[1,2,4]triazolo[4,3-a]pyrimidine-6-carboxylic acid methyl ester] | < 20 |
| COC(=O)C1=C(C)N(c2cccc(C(F)(F)F)c2)c2nn(CC(=O)N(C)CCCN(C)C)c(=O)n2C1c1ccc(C#N)cc1 (stereo not drawn) [Example 26, 5-(4-Cyano-phenyl)-2-{[(3-dimethylamino-propyl)-methyl-carbamoyl]-methyl}-7-methyl-3-oxo-8-(3-trifluoromethyl-phenyl)-2,3,5,8-tetrahydro-[1,2,4]triazolo[4,3-a]pyrimidine-6-carboxylic acid methyl ester] | < 20 |
| COC(=O)C1=C(C)N(c2cccc(C(F)(F)F)c2)c2nn(CC(=O)N(C)CC[N+](C)(C)C)c(=O)n2C1c1ccc(C#N)cc1 (stereo not drawn) [Example 27, [2-({2-[5-(4-Cyano-phenyl)-6-methoxycarbonyl-7-methyl-3-oxo-8-(3-trifluoromethyl-phenyl)-5,8-dihydro-[1,2,4]triazolo[4,3-a]pyrimidin-2-yl]-acetyl}-methyl-amino)-ethyl]trimethyl-ammonium bromide] | < 20 |
| COC(=O)C1=C(C)N(c2cccc(C(F)(F)F)c2)c2nn(CC(=O)N(C)CCC[N+](C)(C)C)c(=O)n2C1c1ccc(C#N)cc1 (stereo not drawn) [Example 28, [3-({2-[5-(4-Cyano-phenyl)-6-methoxycarbonyl-7-methyl-3-oxo-8-(3-trifluoromethyl-phenyl)-5,8-dihydro-[1,2,4]triazolo[4,3-a]pyrimidin-2-yl]-acetyl}-methyl-amino)propyl]-trimethyl-ammonium; bromide] | < 20 |
| COC(=O)C1=C(C)N(c2cccc(C(F)(F)F)c2)c2nn(CC(=O)N(C)CCCCN(C)C)c(=O)n2C1c1ccc(C#N)cc1 (stereo not drawn) [Example 29, 5-(4-Cyano-phenyl)-2-{[(4-dimethylamino-butyl)-methyl-carbamoyl]-methyl}-7-methyl-3-oxo-8-(3-trifluoromethyl-phenyl)-2,3,5,8-tetrahydro-[1,2,4]triazolo[4,3-a]pyrimidine-6-carboxylic acid methyl ester] | < 20 |
| COC(=O)C1=C(C)N(c2cccc(C(F)(F)F)c2)c2nn(CC(=O)N(C)CCCCCN(C)C)c(=O)n2C1c1ccc(C#N)cc1 (stereo not drawn) [Example 30, 5-(4-Cyano-phenyl)-2-{[(5-dimethylamino-pentyl)-methyl-carbamoyl]-methyl}-7-methyl-3-oxo-8-(3-trifluoromethyl-phenyl)-2,3,5,8-tetrahydro-[1,2,4]triazolo[4,3-a]pyrimidine-6-carboxylic acid methyl ester] | < 20 |
| COC(=O)C1=C(C)N(c2cccc(C(F)(F)F)c2)c2nn(CC(=O)N(C)CCCC[N+](C)(C)C)c(=O)n2C1c1ccc(C#N)cc1 (stereo not drawn) [Example 31, [4-({2-[5-(4-Cyano-phenyl)-6-methoxycarbonyl-7-methyl-3-oxo-8-(3-trifluoromethyl-phenyl)-5,8-dihydro-[1,2,4]triazolo[4,3-a]pyrimidin-2-yl]-acetyl}-methyl-amino)-butyl]-trimethylammonium bromide] | < 20 |
| COC(=O)C1=C(C)N(c2cccc(C(F)(F)F)c2)c2nn(CC(=O)N(C)CCCCC[N+](C)(C)C)c(=O)n2C1c1ccc(C#N)cc1 (stereo not drawn) [Example 32, [5-({2-[5-(4-Cyano-phenyl)-6-methoxycarbonyl-7-methyl-3-oxo-8-(3-trifluoromethyl-phenyl)-5,8-dihydro-[1,2,4]triazolo[4,3-a]pyrimidin-2-yl]-acetyl}-methyl-amino)pentyl]-trimethyl-ammonium; bromide] | < 20 |
| COC(=O)C1=C(C)N(c2cccc(C(F)(F)F)c2)c2nn(CC(=O)N(C)CCCCCN(C)C)c(=O)n2[C@@H]1c1ccc(C#N)cc1 [Example 33, (R)-5-(4-Cyano-phenyl)-2-{[(5-dimethylamino-pentyl)-methyl-carbamoyl]-methyl}-7-methyl-3-oxo-8-(3-trifluoromethyl-phenyl)-2,3,5,8-tetrahydro-[1,2,4]triazolo[4,3-a]pyrimidine-6-carboxylic acid methyl ester] | < 20 |
| COC(=O)C1=C(C)N(c2cccc(C(F)(F)F)c2)c2nn(CC(=O)N(C)CCCCC[N+](C)(C)C)c(=O)n2[C@@H]1c1ccc(C#N)cc1 [Example 34, (R)-[5-({2-[5-(4-Cyano-phenyl)-6-methoxycarbonyl-7-methyl-3-oxo-8-(3-trifluoromethyl-phenyl)-5,8-dihydro-[1,2,4]triazolo[4,3-a]pyrimidin-2-yl]-acetyl}-methyl-amino)pentyl]-trimethyl-ammonium chloride] | < 20 |
| COC(=O)C1=C(C)N(c2cccc(C(F)(F)F)c2)c2nn(CCCN(C)C(C)=O)c(=O)n2C1c1ccc(C#N)cc1 (stereo not drawn) [Example 35, 2-[3-(Acetyl-methyl-amino)-propyl]-5-(4-cyano-phenyl)-7-methyl-3-oxo-8-(3-trifluoromethylphenyl)-2,3,5,8-tetrahydro-[1,2,4]triazolo[4,3-a]pyrimidine-6-carboxylic acidmethyl ester] | < 20 |
| COC(=O)C1=C(C)N(c2cccc(C(F)(F)F)c2)c2nn(CCCN(C)S(C)(=O)=O)c(=O)n2C1c1ccc(C#N)cc1 (stereo not drawn) [Example 36, 5-(4-Cyano-phenyl)-2-[3-(methanesulfonyl-methyl-amino)-propyl]-7-methyl-3-oxo-8-(3-trifluoromethyl-phenyl)-2,3,5,8-tetrahydro-[1,2,4]triazolo[4,3-a]pyrimidine-6-carboxylic acidmethyl ester] | < 20 |
| COC(=O)C1=C(C)N(c2cccc(C(F)(F)F)c2)c2nn(CCCS(=O)(=O)CCC[N+](C)(C)C)c(=O)n2C1c1ccc(C#N)cc1 (stereo not drawn) [Example 37, (3-{3-[5-(4-Cyano-phenyl)-6-methoxycarbonyl-7-methyl-3-oxo-8-(3-trifluoromethyl-phenyl)-5,8-dihydro-[1,2,4]triazolo[4,3-a]pyrimidin-2-yl]-propane-1-sulfonyl}-propyl)-trimethylammonium toluene-4-sulfonate] | < 20 |
| COC(=O)C1=C(C)N(c2cccc(C(F)(F)F)c2)c2nn(CCCS(=O)(=O)CCC[N+](C)(C)C)c(=O)n2[C@@H]1c1ccc(C#N)cc1 [Example 38, (R)-(3-{3-[5-(4-Cyano-phenyl)-6-methoxycarbonyl-7-methyl-3-oxo-8-(3-trifluoromethyl-phenyl)-5,8-dihydro-[1,2,4]triazolo[4,3-a]pyrimidin-2-yl]-propane-1-sulfonyl}-propyl)-trimethylammonium chloride] | < 20 |
| CC1=C(C#N)C(c2ccc(C#N)cc2)n2c(nn(CCCS(=O)(=O)CCC[N+](C)(C)C)c2=O)N1c1cccc(C(F)(F)F)c1 (stereo not drawn) [Example 39, (3-{3-[6-Cyano-5-(4-cyano-phenyl)-7-methyl-3-oxo-8-(3-trifluoromethyl-phenyl)-5,8-dihydro-[1,2,4]triazolo[4,3-a]pyrimidin-2-yl]-propane-1-sulfonyl}-propyl)-trimethylammonium toluene-4-sulfonate] | < 20 |
